We go through one compound from paper PMC8067754, “Active Transport of Hepatotoxic Pyrrolizidine Alkaloids in HepaRG Cells” (International Journal of Molecular Sciences, 2021).

“And” between values parts separate entries of the source, which are not always exact repeats. Equal values may be shown once. Read-outs that look alike come from different tables or passages of the source.

As a reminder, the viability is a read-out of living cells in per cent, often relative to untreated cells.

One series has as its system HepaRG cells. In words: Cell viability (MTT assay) of HepaRG cells with and without transporter inhibitors. The conditions noted are these: for viability [%], single replicates: repl. 1-6; for Cell viability (MTT), percent of solvent control, Mean [%]: 24 h, listed as Sc. The class given is cell-based, human. The procedure:
(§1) In the case of TEA, cells were pre-incubated 24 h prior to PA treatment. The inhibitors were applied anew at PA incubation.
(§2) To analyze the cytotoxic effects of PAs on HepaRG cells with non-inhibited and inhibited hepatic transporters, the cells were seeded at a density of 9000 cells per well in the inner 60 wells of a 96-well plate and cultivated as described in Section 4.2. After four weeks of cultivation, FBS concentration in the cell culture medium was reduced to 2% for 48 h prior incubation. Thereby, inhibitory effects of peptide growth factors from the FBS on xenobiotic-metabolizing enzymes were minimized. […] The cells were pre-incubated with pharmacological inhibitors as described in Section 4.3. […] Cell viability was analyzed via the MTT test. 10 µl MTT reagent (5 mg/mL MTT dissolved in phosphate-buffered saline, PBS) was added per well and incubated for 1 h at 37 °C. The supernatant was discarded, and the violet formazan crystals dissolved in 130 µL desorption solution (0.7% sodium dodecyl sulfate in propan-2-ol). After shaking for 20 min (under protection from light), absorbance was measured on a TecanM200Pro spectrometer (Tecan Group Ltd., Männedorf, Switzerland) at a wavelength of 570 nm, along with a reference wavelength of 630 nm.

Experiment in series [1]: as above
The conditions noted are these: human, HepaRG cells. The class given is cell-based, human. How it is done: as §1, §2

Setting [2] is: mean of 6 replicates, no inhibitor, read-out: viability, MW [%].
Setting [3] is: repl. 1-6, read-out: viability [%], single replicates.

With `C/C=C1/C[C@@H](C)[C@@](C)(O)C(=O)OCC2=CCN3CC[C@@H](OC1=O)[C@@H]23` [Senecionine, senecionine], the “viability [%], single replicates” value in the series on HepaRG cells (1 µM) was 104.702% and 96.5101% and 108.622% and 97.0096% and 97.8347%; with HepaRG cells (10 µM) it was 86.1735% and 91.8709% and 86.9963% and 83.2717% and 79.1258%; in the series on HepaRG cells (50 µM), 59.5192% and 77.2207% and 70.6602% and 63.183% and 55.3454%; in the series on HepaRG cells (100 µM), 53.5295% and 51.7769% and 80.0886% and 68.6733% and 54.6212% and 49.5185%; in the series on HepaRG cells (250 µM), 44.9713% and 47.0747% and 66.5507% and 52.719% and 45.8871% and 35.0536%. The “cytotoxicity of the applied concentration” value in the series with HepaRG cells (HepaRG, 2.5 µM, Figure S2) is recorded as “not cytotoxic”. For the same compound, the “Cell viability (MTT), percent of solvent control, Mean [%]” value in the series with HepaRG cells (HepaRG, 250 µM PA + CsA (10 µM, 1 h pre-incubation)) is recorded as 63.5771%; in the series on HepaRG cells (HepaRG, 250 µM PA + Qu (100 µM, 1 h pre-incubation)), 91.9218%; in the series on HepaRG cells (HepaRG, 250 µM PA + TEA (3 mM, 24 h pre-incubation)), 69.5844%; with HepaRG cells (HepaRG, 250 µM PA only), 46.8929%. Further, the viability at 24 h, 1 µM in series [1] (setting [2]) came to 100%; in series [1] (setting [3]), 95.1%. For the same compound, the viability at 24 h, 10 µM in series [1] (setting [2]) worked out at 84.6%; in series [1] (setting [3]) it was 80%. Besides, the viability at 24 h, 50 µM in series [1] (50 µM, mean of 6 replicates, no inhibitor, read-out: viability, MW [%]) was 65%. Besides, the viability at 24 h, 100 µM in series [1] (100 µM, mean of 6 replicates, no inhibitor, read-out: viability, MW [%]) came out at 59.7%. Besides, the viability at 24 h, 250 µM in series [1] (250 µM, mean of 6 replicates, no inhibitor, read-out: viability, MW [%]) worked out at 48.7%; in series [1] (HepaRG, 250 µM PA only, 24 h, read-out: Cell viability (MTT), percent of solvent control, Mean [%]), 46%; in series [1] (with 5 µM Ko143, HepaRG, 250 µM PA + Ko143 (5 µM, 1 h pre-incubation), 24 h, read-out: Cell viability (MTT), percent of solvent control, Mean [%]), 46.5%; in series [1] (with 50 µM MK-571, HepaRG, 250 µM PA + MK571 (50 µM, 1 h pre-incubation), 24 h, read-out: Cell viability (MTT), percent of solvent control, Mean [%]), 59.1%; in series [1] (with CsA 10 µM, HepaRG, 250 µM PA + CsA (10 µM, 1 h pre-incubation), 24 h, read-out: Cell viability (MTT), percent of solvent control, Mean [%]), 63%; in series [1] (with Qu 100 µM, HepaRG, 250 µM PA + Qu (100 µM, 1 h pre-incubation), 24 h, read-out: Cell viability (MTT), percent of solvent control, Mean [%]) it was 90%. The viability at 24 h, 250 µM in series [1] (with TEA 3 mM, HepaRG, 250 µM PA + TEA (3 mM, 24 h pre-incubation), 24 h, read-out: Cell viability (MTT), percent of solvent control, Mean [%]) was 69%.
